Results taken from US20250304576A1 (Cancer Research Technology Limited, priority 2022, published 2025).

Legend:
Recombinant IKKβ = molecular target: T1, Recombinant IKKβ (Homo sapiens, UniProt O14920); experiment: DELFIA IKKβ kinase assay (apparent Ki, Cheng-Prusoff); type: biochemical
T1 construct: purchased Millipore, Dundee, UK
T1 sequence (O14920 1-756): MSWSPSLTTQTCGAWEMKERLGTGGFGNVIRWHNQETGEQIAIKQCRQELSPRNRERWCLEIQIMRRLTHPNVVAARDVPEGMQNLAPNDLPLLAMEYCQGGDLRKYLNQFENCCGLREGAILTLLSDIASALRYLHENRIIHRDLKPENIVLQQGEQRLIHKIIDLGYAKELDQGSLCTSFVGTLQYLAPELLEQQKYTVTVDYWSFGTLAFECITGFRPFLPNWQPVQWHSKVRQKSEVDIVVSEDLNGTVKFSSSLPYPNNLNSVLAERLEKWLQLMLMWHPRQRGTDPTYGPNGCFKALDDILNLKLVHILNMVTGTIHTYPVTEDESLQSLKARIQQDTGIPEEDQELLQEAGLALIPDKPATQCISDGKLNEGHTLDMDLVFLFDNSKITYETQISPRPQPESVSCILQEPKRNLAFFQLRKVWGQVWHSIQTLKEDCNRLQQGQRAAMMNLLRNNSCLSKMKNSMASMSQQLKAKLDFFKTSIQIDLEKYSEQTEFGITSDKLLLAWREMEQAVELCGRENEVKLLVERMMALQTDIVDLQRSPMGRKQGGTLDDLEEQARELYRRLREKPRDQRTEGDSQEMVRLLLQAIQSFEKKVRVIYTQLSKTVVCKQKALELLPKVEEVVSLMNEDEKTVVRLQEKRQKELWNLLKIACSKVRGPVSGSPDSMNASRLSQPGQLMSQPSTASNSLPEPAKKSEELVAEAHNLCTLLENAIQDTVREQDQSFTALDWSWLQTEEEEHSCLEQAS
Outline: (§1)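 Recombinant IKKα or IKKβ (37 nM) with 0.375 μM biotinylated IκB-α (Ser32) peptide and 40 μM ATP in 40 mM Tris-HCl pH 7.5, 20 mM MgCl2, 60 min at 30° C. Phospho-substrate captured on streptavidin and detected by anti-phospho-IκB-α plus europium anti-mouse IgG time-resolved fluorescence; apparent Ki via Cheng-Prusoff.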

Recombinant IKKα = molecular target: T2, Recombinant IKKα (Homo sapiens, UniProt O15111); experiment: DELFIA IKKα kinase assay (apparent Ki, Cheng-Prusoff); type: biochemical
T2 construct: purchased Millipore, Dundee, UK
T2 sequence (O15111 1-745): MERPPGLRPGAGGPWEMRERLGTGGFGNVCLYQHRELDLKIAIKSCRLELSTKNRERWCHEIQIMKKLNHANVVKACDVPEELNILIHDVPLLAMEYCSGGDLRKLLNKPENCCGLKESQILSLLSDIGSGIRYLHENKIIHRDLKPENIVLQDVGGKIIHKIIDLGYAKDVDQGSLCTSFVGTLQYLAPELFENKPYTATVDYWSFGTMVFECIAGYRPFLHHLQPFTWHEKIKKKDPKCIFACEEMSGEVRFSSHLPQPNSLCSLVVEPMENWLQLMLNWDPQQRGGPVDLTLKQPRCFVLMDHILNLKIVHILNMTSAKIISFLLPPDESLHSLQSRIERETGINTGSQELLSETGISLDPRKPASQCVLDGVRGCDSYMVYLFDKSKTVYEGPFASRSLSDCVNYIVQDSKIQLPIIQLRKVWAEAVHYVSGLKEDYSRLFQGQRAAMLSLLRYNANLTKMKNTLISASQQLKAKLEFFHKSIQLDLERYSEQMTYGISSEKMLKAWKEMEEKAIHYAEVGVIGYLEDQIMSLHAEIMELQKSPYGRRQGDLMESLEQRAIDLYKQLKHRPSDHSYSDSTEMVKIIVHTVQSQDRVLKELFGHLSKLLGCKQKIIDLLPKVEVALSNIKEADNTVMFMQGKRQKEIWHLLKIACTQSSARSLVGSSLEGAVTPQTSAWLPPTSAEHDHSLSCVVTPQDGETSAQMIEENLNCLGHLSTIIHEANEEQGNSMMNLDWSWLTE
Outline: as §1

[1] = DELFIA assay (first line of an example)
[2] = non-italicised figure: DELFIA assay

In the case of `CC(C)OCCCNCc1cc2c(-c3ccc4[nH]nc(N)c4c3)ccnc2[nH]1` [Example 257, 5-(2-(((3-Isopropoxypropyl)amino)methyl)-1H-pyrrolo[2,3-b]346yridine-4-yl)-1H-indazol-3-amine], the Ki (Recombinant IKKβ; [1]) is reported as 2220 nM and the Ki (Recombinant IKKα; [1]) is reported as 40 nM.

`CC(=O)Nc1cc(-c2cc(-c3ccncc3)c3[nH]nc(N)c3c2)ccn1` [Example 197, N-(4-(3-Amino-7-(pyridin-4-yl)-1H-indazol-5-yl)pyridin-2-yl)acetamide] gave a Ki (Recombinant IKKβ; [1]) of 70 nM and a Ki (Recombinant IKKα; [1]) of 25 nM.

Compound `Nc1cc(-c2cc(-c3ccncc3)c3[nH]nc(N)c3c2)ccn1` [Example 128, 5-(2-Aminopyridin-4-yl)-7-(pyridin-4-yl)-1H-indazol-3-amine] has a Ki (Recombinant IKKβ; [2]) of 1300 nM and a Ki (Recombinant IKKα; [2]) of 35 nM.

In the case of `CC(C)(C)C#Cc1cc(-c2ccnc3[nH]c(CO)cc23)cc2c(N)n[nH]c12` [Example 297, (4-(3-Amino-7-(3,3-dimethylbut-1-yn-1-yl)-1H-indazol-5-yl)-1H-pyrrolo[2,3-b]pyridin-2-yl)methanol], the Ki (Recombinant IKKβ; [1]) is reported as 268 nM and the Ki (Recombinant IKKα; [1]) is reported as 2 nM.

`CC(C)(C)C#Cc1cc(-c2ccnc(Nc3c[nH]cn3)c2)cc2c(N)n[nH]c12` [Example 318, 5-(2-((1H-Imidazol-4-yl)amino)pyridin-4-yl)-7-(3,3-dimethylbut-1-yn-1-yl)-1H-indazol-3-amine] gave a Ki (Recombinant IKKβ; [1]) of 502 nM and a Ki (Recombinant IKKα; [1]) of 66 nM.

`CC(C)(C)C#Cc1cc(-c2ccnc(NC(=O)Nc3ccccc3)c2)cc2c(N)n[nH]c12` [Example 189, 1-(4-(3-Amino-7-(3,3-dimethylbut-1-yn-1-yl)-1H-indazol-5-yl)pyridine-2-yl)-3-phenylurea] showed a Ki (Recombinant IKKβ; [1]) of 19300 nM and a Ki (Recombinant IKKα; [1]) of 113 nM.

Work on `Nc1n[nH]c2c(C#CCCCCN3CCCCC3)cc(-c3ccnc4[nH]ccc34)cc12` [Example 213, 7-(6-(Piperidin-1-yl)hex-1-yn-1-yl)-5-(1H-pyrrolo[2,3-b]pyridin-4-yl)-1H-indazol-3-amine] yielded a Ki (Recombinant IKKβ; [1]) of 2510 nM and a Ki (Recombinant IKKα; [1]) of 40 nM.

For `Nc1cc(-c2cc(-c3ccc(CO)cc3)c3[nH]nc(N)c3c2)ccn1` [Example 118], the Ki (Recombinant IKKβ; [2]) was 406 nM and the Ki (Recombinant IKKα; [2]) was 29 nM.

In the case of `Nc1cc(-c2cc(-c3cccc(CO)c3)c3[nH]nc(N)c3c2)ccn1` [Example 110], the Ki (Recombinant IKKβ; [2]) is reported as 290 nM and the Ki (Recombinant IKKα; [2]) is reported as 29 nM.

For `COC(=O)Nc1cc(-c2cc(C#CC(C)(C)OC)c3[nH]nc(N)c3c2)ccn1` [Example 182, Methyl (4-(3-amino-7-(3-methoxy-3-methylbut-1-yn-1-yl)-1H-indazol-5-yl)pyridin-2-yl)carbamate], the Ki (Recombinant IKKβ; [2]) was 363 nM and the Ki (Recombinant IKKα; [2]) was 34 nM.

With `CC(C)(C)C#Cc1cc(-c2ccnc(NC(=O)C3CC3)c2)cc2c(N)n[nH]c12` [Example 167, N-(4-(3-Amino-7-(3,3-dimethylbut-1-yn-1-yl)-1H-indazol-5-yl)pyridin-2-yl)cyclopropane carboxamide] the Ki (Recombinant IKKβ; [2]) was 1110 nM and the Ki (Recombinant IKKα; [2]) was 15 nM.

In the case of `COC(=O)Nc1cc(-c2cc(C#CC3(O)CCCC3)c3[nH]nc(N)c3c2)ccn1` [Example 304, Methyl (4-(3-amino-7-((1-hydroxycyclopentyl)ethynyl)-1H-indazol-5-yl)pyridin-2-yl)carbamate], the Ki (Recombinant IKKβ; [1]) is reported as 275 nM and the Ki (Recombinant IKKα; [1]) is reported as 64 nM.

In the case of `Cc1ccccc1NC(=O)Nc1cc(-c2ccc3[nH]nc(N)c3c2)ccn1` [Example 66, 1-(4-(3-Amino-1H-indazol-5-yl)pyridin-2-yl)-3-(o-tolyl)urea], the Ki (Recombinant IKKβ; [2]) is reported as 1050 nM and the Ki (Recombinant IKKα; [2]) is reported as 46 nM.

Work on `CC(C)CCNC(=O)Nc1cc(-c2ccc3[nH]nc(N)c3c2)ccn1` [Example 38, 1-(4-(3-Amino-1H-indazol-5-yl)pyridin-2-yl)-3-isopentylurea] yielded a Ki (Recombinant IKKβ; [2]) of 4200 nM and a Ki (Recombinant IKKα; [2]) of 100 nM.

`COc1cccc(-c2cc(-c3ccnc(N)c3)cc3c(N)n[nH]c23)c1` [Example 109, 5-(2-Aminopyridin-4-yl)-7-(3-methoxyphenyl)-1H-indazol-3-amine] gave a Ki (Recombinant IKKβ; [2]) of 587 nM and a Ki (Recombinant IKKα; [2]) of 55 nM.

Compound `Cc1cc(S(N)(=O)=O)ccc1-c1cc(-c2ccnc(N)c2)cc2c(N)n[nH]c12` [Example 126, 4-(3-Amino-5-(2-aminopyridin-4-yl)-1H-indazol-7-yl)-3-methylbenzenesulfonamide] has a Ki (Recombinant IKKβ; [2]) of 5030 nM and a Ki (Recombinant IKKα; [2]) of 571 nM.

`Nc1n[nH]c2c(C#CC3CC3)cc(-c3ccnc(NC(=O)C4CC4)c3)cc12` [Example 289, N-(4-(3-Amino-7-(cyclopropylethynyl)-1H-indazol-5-yl)pyridin-2-yl)cyclopropanecarboxamide] gave a Ki (Recombinant IKKβ; [1]) of 570 nM and a Ki (Recombinant IKKα; [1]) of 42 nM.

`Cc1coc(Nc2cc(-c3cc(C#CC(C)(C)C)c4[nH]nc(N)c4c3)ccn2)n1` [Example 315, N-(4-(3-Amino-7-(3,3-dimethylbut-1-yn-1-yl)-1H-indazol-5-yl)pyridin-2-yl)-4-methyloxazol-2-amine] showed a Ki (Recombinant IKKβ; [1]) of 836 nM and a Ki (Recombinant IKKα; [1]) of 54 nM.

In the case of `CCOC(=O)c1cc2c(-c3ccc4[nH]nc(N)c4c3)ccnc2[nH]1` [Example 232, Ethyl 4-(3-amino-1H-indazol-5-yl)-1H-pyrrolo[2,3-b]pyridine-2-carboxylate], the Ki (Recombinant IKKβ; [1]) is reported as 1260 nM and the Ki (Recombinant IKKα; [1]) is reported as 10 nM.

`CCOC(=O)c1cccc(-c2cc(-c3ccnc(N)c3)cc3c(N)n[nH]c23)c1` [Example 112, Ethyl 3-(3-amino-5-(2-aminopyridin-4-yl)-1H-indazol-7-yl)benzoate] showed a Ki (Recombinant IKKβ; [2]) of 1470 nM and a Ki (Recombinant IKKα; [2]) of 152 nM.

In the case of `Nc1cc(-c2cc(-c3ccc(CCN4CCOCC4)cc3)c3[nH]nc(N)c3c2)ccn1` [Example 329, 5-(2-Aminopyridin-4-yl)-7-(4-(2-morpholinoethyl)phenyl)-1H-indazol-3-amine], the Ki (Recombinant IKKβ; [1]) is reported as 108 nM and the Ki (Recombinant IKKα; [1]) is reported as 14 nM.

`Nc1cc(-c2cc(-c3cccc(F)c3)c3[nH]nc(N)c3c2)ccn1` [Example 105, 5-(2-Aminopyridin-4-yl)-7-(3-fluorophenyl)-1H-indazol-3-amine] was tested, and the Ki (Recombinant IKKβ; [2]) was 500 nM and the Ki (Recombinant IKKα; [2]) was 40 nM.

In the case of `Nc1cc(-c2cc(-c3ccc(O)cc3)c3[nH]nc(N)c3c2)ccn1` [Example 117, 4-(3-Amino-5-(2-aminopyridin-4-yl)-1H-indazol-7-yl)phenol], the Ki (Recombinant IKKβ; [2]) is reported as 235 nM and the Ki (Recombinant IKKα; [2]) is reported as 17 nM.

`Nc1cc(-c2cc(-c3cccs3)c3[nH]nc(N)c3c2)ccn1` [Example 131, 5-(2-Aminopyridin-4-yl)-7-(thiophen-2-yl)-1H-indazol-3-amine] was tested, and the Ki (Recombinant IKKβ; [2]) was 224 nM and the Ki (Recombinant IKKα; [2]) was 21 nM.

`CCOC(=O)Nc1cc(-c2ccc3[nH]nc(N)c3c2)ccn1` [Example 35, Ethyl (4-(3-amino-1H-indazol-5-yl)pyridin-2-yl)carbamate] showed a Ki (Recombinant IKKβ; [2]) of 470 nM and a Ki (Recombinant IKKα; [2]) of 15 nM.

With `Nc1n[nH]c2c(Cl)cc(-c3ccnc4[nH]c(CC5CCCCC5)cc34)cc12` [Example 275, 7-Chloro-5-(2-(cyclohexylmethyl)-1H-pyrrolo[2,3-b]pyridin-4-yl)-1H-indazol-3-amine] the Ki (Recombinant IKKβ; [1]) was 376 nM and the Ki (Recombinant IKKα; [1]) was 37 nM.

Compound `Nc1n[nH]c2ccc(-c3ccnc(NC(=O)NCCCO)c3)cc12` [Example 42, 1-(4-(3-Amino-1H-indazol-5-yl)pyridin-2-yl)-3-(3-hydroxypropyl)urea] has a Ki (Recombinant IKKβ; [2]) of 670 nM and a Ki (Recombinant IKKα; [2]) of 114 nM.

`Nc1cc(-c2cc(-c3cccc(CN4CCOCC4)c3)c3[nH]nc(N)c3c2)ccn1` [Example 116] was tested, and the Ki (Recombinant IKKβ; [2]) was 1010 nM and the Ki (Recombinant IKKα; [2]) was 162 nM.

`CC(C)(O)C#Cc1cc(-c2ccnc(NC3COC3)c2)cc2c(N)n[nH]c12` [Example 287, 4-(3-Amino-5-(2-(oxetan-3-ylamino)pyridin-4-yl)-1H-indazol-7-yl)-2-methylbut-3-yn-2-ol] gave a Ki (Recombinant IKKβ; [1]) of 2050 nM and a Ki (Recombinant IKKα; [1]) of 93 nM.

Work on `CS(=O)(=O)c1cccc(-c2cc(-c3ccnc(N)c3)cc3c(N)n[nH]c23)c1` [Example 115] yielded a Ki (Recombinant IKKβ; [2]) of 2000 nM and a Ki (Recombinant IKKα; [2]) of 79 nM.

For `CC(C)Nc1cc(-c2ccc3[nH]nc(N)c3c2)ccn1` [Example 14, 5-(2-(Isopropylamino)pyridin-4-yl)-1H-indazol-3-amine], the Ki (Recombinant IKKβ; [2]) was 587 nM and the Ki (Recombinant IKKα; [2]) was 76 nM.
